Source: patent publication US8481459B2, “Chemical inhibitors of ethylene biosynthesis” (Academia Sinica, priority 2010, dated 2013)

Tested on: gene expression in etiolated eto1-4 seedlings
Experiment: Transcriptional profiling (ATH1 GeneChip microarray) of etiolated eto1-4 seedlings
Assay type: in vivo, Arabidopsis thaliana
Conditions: ratio eto1-4 treated to eto1-4 (no treatment)
Procedure: For chemical treatments, seeds were sown on 0.5×MS agar medium supplemented with 10 μM chemicals (AVG, compounds 9393, 9370, and 7303) or DMSO (as control). Arabidopsis seeds were stratified in the dark at 4° C. for 4 days, then germinated in the dark for 3 days at 22° C. Approximately 2,000 etiolated seedlings of the wild type or eto1-4 were used to collect tissues for preparation of total RNA in each microarray experiment with Arabidopsis ATH1 GeneChip (Affymetrix). Extraction of RNA followed an established protocol (Chang, et al. (1993) Plant Mol. Biol. Rep. 11, 113-117). Total RNA (10 μg) was used to prepare biotinylated cRNA for hybridization to ATH1 GeneChip in the experiments disclosed herein. Experiments were repeated by 2 independent biological duplicates, and candidate genes present in both experiments were selected for further analysis. The MASS method was used for data analysis and normalization by all sample medium. Candidate genes were selected by the following criteria. First, genes with 1.5-fold differential expression between the wild type and eto1-4 were selected as the master gene pool, which was then used for comparison in treatments with AVG and individual exemplary compounds. Data were presented in hierarchical clustering and Venn diagram format. Agilent GeneSpring GX and Bioconductor software were used to analyze the expression profile data. Gene Ontology descriptions were generated by GeneSpring GX and further referred to the TAR GO database. Raw data are available in the GEO database (http://www.ncbi.nlm.nih.gov/geo) with Accession no. GSE20897.
The filtered and normalized expression data set from 22810 probes on the ATH1 Genechip was used for hierarchical clustering of gene expression profiles for comparison between AVG and the exemplary invention compounds in eto1-4. It was identified that 1,446 genes show at least 1.5-fold difference in expression between the WT and eto1-4 and used them as the master gene pool for clustering analysis (FIG. 7A). […] These genes likely contribute to the etiolated phenotype of eto1-4 by responding to elevated endogenous ethylene. To determine whether the exemplary compounds have specific r overlapping functions with AVG to suppress the eto1-4 phenotype, genes that are regulated by individual exemplary invention compounds and AVG for Venn diagram analysis were clustered (FIG. 7B). More than 63% of genes (356/561 for compound 9393; 389/561 for compound 9370; 399/561 for compound 7303; FIG. 7B) with expression associated with AVG were co-regulated by the exemplary invention compounds, which indicates an overlap function in suppression of the ethylene phenotype in eto1-4. […] Next genes co-regulated by all of the exemplary invention compounds and AVG were examined by performing a clustering analysis using the co-regulated genes identified in FIG. 7B: 356 (compound 9393 vs AVG), 389 (compound 9370 vs AVG) and 399 genes (compound 7303 vs AVG). It was uncovered that 276 genes were co-regulated by all of the exemplary invention compounds and AVG (FIG. 7C and Table 2). On the basis of GO descriptions generated by Gene Spring GX and TAIR database, the 276 genes were divided into subgroups related to their biological functions (Table 2). […] In addition, stress- and pathogenesis-related genes were among the co-regulated genes, possibly because ethylene is involved in both biotic and abiotic stresses.
Genes (1446 non-redundant loci) were selected by 1.5-fold differential expression between eto1-4 and WT as the master pool for analysis. These genes were used for comparison between chemical treatments by AVG and the exemplary invention compounds. The finalized 276 genes that are co-regulated by AVG and all of the exemplary invention compounds are shown. Locus ID also present in Nemhauser et al. (Nemhauser, et al. (2006) Cell 126, 467-475).

## COc1ccc(C2CC(=O)c3cnc(Nc4ccccc4)nc3C2)cc1 (centres unmarked) [Compound 7303]
  Signal Fold Change AT3G14850, unknown biological function: 0.13
  Signal Fold Change AT3G15890 protein kinase: 2.14
  Signal Fold Change AT3G16450 jacalin lectin protein: 3.13
  Signal Fold Change AT3G16470 jacalin lectin protein: 6.91
  Signal Fold Change AT3G16690, unknown biological function: 4.80
  Signal Fold Change AT3G17680, unknown biological function: 0.17
  Signal Fold Change AT3G20130 cytochrome P450: 1.89
  Signal Fold Change AT3G21770 peroxidase 30: 1.84
  Signal Fold Change AT3G22620 lipid transfer protein: 2.70
  Signal Fold Change AT3G23150 ethylene receptor, putative (ETR2): 0.18
  Signal Fold Change AT3G23800, unknown biological function: 0.33
  Signal Fold Change AT3G24670, unknown biological function: 0.38
  Signal Fold Change AT3G25710 bHLH protein: 2.51
  Signal Fold Change AT3G25730 AP2-containing transcription factor: 0.21
  Signal Fold Change AT3G25980 mitotic spindle checkpoint protein: 2.49
  Signal Fold Change AT3G27580 protein kinase: 0.46
  Signal Fold Change AT3G28290, unknown biological function: 0.27
  Signal Fold Change AT3G29250 short-chain dehydrogenase: 20.57
  Signal Fold Change AT3G30775 proline oxidase, mitochondrial: 4.43
  Signal Fold Change AT3G43270 pectinesterase protein: 0.33
  Signal Fold Change AT3G44820, response to light stimulus, phototropic-responsive NPH3 protein: 2.99
  Signal Fold Change AT3G44990 endo-xyloglucan transferase: 0.21
  Signal Fold Change AT3G45710 proton-dependent oligopeptide transport (POT) protein: 4.30
  Signal Fold Change AT3G46130 myb transcription factor (MYB48): 2.20
  Signal Fold Change AT3G46700 UDP-glucosyl transferase: 7.33
  Signal Fold Change AT3G47210, unknown biological function: 3.50
  Signal Fold Change AT3G47250, unknown biological function: 5.15
  Signal Fold Change AT3G49780 phytosulfokines 3 (PSK3): 9.23
  Signal Fold Change AT3G50660 steroid 22-alpha-hydroxylase: 4.40
  Signal Fold Change AT3G51410, unknown biological function: 0.21
  Signal Fold Change AT3G51970, unknown biological function: 3.02
  Signal Fold Change AT3G52180 protein tyrosine phosphatase: 0.22
  Signal Fold Change AT3G52920 expressed protein (defense response): 3.88
  Signal Fold Change AT3G53540, unknown biological function: 0.41
  Signal Fold Change AT3G56480, unknown biological function: 2.86
  Signal Fold Change AT3G58710 WRKY transcription factor: 2.61
  Signal Fold Change AT3G59370, unknown biological function: 3.33
  Signal Fold Change AT3G59710 short-chain dehydrogenase: 0.48
  Signal Fold Change AT3G59900, unknown biological function: 0.39
  Signal Fold Change AT3G60520, unknown biological function: 0.30
  Signal Fold Change AT3G61160 shaggy-related protein kinase beta/ASK-beta (ASK2): 5.02
  Signal Fold Change AT4G00730 anthocyaninless2: 0.54
  Signal Fold Change AT4G01410, unknown biological function: 0.54
  Signal Fold Change AT4G03140 short-chain dehydrogenase: 0.23
  Signal Fold Change AT4G08300, unknown biological function: 4.13
  Signal Fold Change AT4G09570 calcium-dependent protein kinase: 0.34
  Signal Fold Change AT4G10910, unknown biological function: 4.49
  Signal Fold Change AT4G11190 disease resistance-responsive protein: 9.71
  Signal Fold Change AT4G11280 ACC synthase 6: 2.00
  Signal Fold Change AT4G11310 cysteine proteinase: 17.92
  Signal Fold Change AT4G12080, unknown biological function: 2.09
  Signal Fold Change AT4G12410 auxin-responsive protein: 3.30
  Signal Fold Change AT4G12480 lipid transfer protein: 0.06
  Signal Fold Change AT4G13210, unknown biological function: 0.27
  Signal Fold Change AT4G15550 UDP-glucose:indole-3-acetate beta-D-glucosyltransferase: 0.39
  Signal Fold Change AT4G15920, unknown biological function: 23.20
  Signal Fold Change AT4G17220 expressed protein (cytoskeleton organization and biogenesis): 2.48
  Signal Fold Change AT4G18340 glycosyl hydrolase: 3.43
  Signal Fold Change AT4G23410 senescence-associated protein: 1.83
  Signal Fold Change AT4G25780, unknown biological function: 9.00
  Signal Fold Change AT4G26010 peroxidase: 0.49
  Signal Fold Change AT4G28085, unknown biological function: 3.16
  Signal Fold Change AT4G31000, unknown biological function: 0.51
  Signal Fold Change AT4G32920, unknown biological function: 2.81
  Signal Fold Change AT4G34560, unknown biological function: 2.51
  Signal Fold Change AT4G34760 auxin-responsive protein: 0.22
  Signal Fold Change AT4G35060 copper chaperone: 3.90
  Signal Fold Change AT4G35150, unknown biological function: 0.31
  Signal Fold Change AT4G36520, unknown biological function: 2.99
  Signal Fold Change AT4G37220 stress-responsive protein: 15.33
  Signal Fold Change AT4G38690, signal transduction, 1-phosphatidylinositol: 3.39
  Signal Fold Change AT4G39210 ADP-glucose pyrophosphorylase: 0.34
  Signal Fold Change AT4G39800 inositol-3-phosphate synthase isozyme 1: 2.69
  Signal Fold Change AT4G39840, unknown biological function: 0.36
  Signal Fold Change AT5G01210, unknown biological function: 0.37
  Signal Fold Change AT5G01300, unknown biological function: 2.28
  Signal Fold Change AT5G02260, cell wall organization and biogenesis, expansin (EXP9): 0.23
  Signal Fold Change AT5G02540 short-chain dehydrogenase: 0.33
  Signal Fold Change AT5G03160 DNAJ heat shock N-terminal domain-containing protein: 2.24
  Signal Fold Change AT5G04080, unknown biological function: 3.07
  Signal Fold Change AT5G05180, unknown biological function: 1.98
  Signal Fold Change AT5G06200, unknown biological function: 1.99
  Signal Fold Change AT5G08240, unknown biological function: 2.56
  Signal Fold Change AT5G08260 serine carboxypeptidase S10 protein: 0.35
  Signal Fold Change AT5G08370 alpha-galactosidase: 3.99
  Signal Fold Change AT5G09980 expressed protein (defense response): 0.28
  Signal Fold Change AT5G10720 sensory transduction histidine kinase: 0.36
  Signal Fold Change AT5G11540, unknown biological function: 6.69
  Signal Fold Change AT5G12170, response to cadmium ion, expressed protein: 0.34
  Signal Fold Change AT5G13870 endo-xyloglucan transferase: 0.19
  Signal Fold Change AT5G13910 AP2/EREBP-like transcription factor: 0.40
  Signal Fold Change AT5G14780 formate dehydrogenase: 0.41
  Signal Fold Change AT5G14920 gibberellin-regulated protein: 0.33
  Signal Fold Change AT5G15290, unknown biological function: 2.99
  Signal Fold Change AT5G15530 biotin carboxyl carrier protein 2: 0.43
  Signal Fold Change AT5G15830 bZIP transcription factor protein: 4.29
  Signal Fold Change AT5G18470, unknown biological function: 0.24
  Signal Fold Change AT5G18670 beta-amylase: 0.63
  Signal Fold Change AT5G18860, unknown biological function: 3.13
  Signal Fold Change AT5G18970, unknown biological function: 3.98
  Signal Fold Change AT5G19890 peroxidase: 0.03
  Signal Fold Change AT5G19930, unknown biological function: 1.84
  Signal Fold Change AT5G20410 monogalactosyldiacylglycerol synthase: 2.86
  Signal Fold Change AT5G22310, unknown biological function: 0.46
  Signal Fold Change AT5G22860 serine carboxypeptidase S28 protein: 3.07
  Signal Fold Change AT5G23750, unknown biological function: 4.93
  Signal Fold Change AT5G24870, unknown biological function: 2.71
  Signal Fold Change AT5G25140 cytochrome P450: 6.66
  Signal Fold Change AT5G25160 zinc finger (C2H2 type) protein: 2.70
  Signal Fold Change AT5G25190 ethylene-responsive element-binding protein: 0.25
  Signal Fold Change AT5G34940, unknown biological function: 0.44
  Signal Fold Change AT5G37300, unknown biological function: 5.67
  Signal Fold Change AT5G38930, unknown biological function: 0.16
  Signal Fold Change AT5G39860 bHLH protein: 4.44
  Signal Fold Change AT5G41900 hydrolase: 4.02
  Signal Fold Change AT5G44410, unknown biological function: 2.89
  Signal Fold Change AT5G44580, unknown biological function: 0.14
  Signal Fold Change AT5G46890 lipid transfer protein: 3.10
  Signal Fold Change AT5G47240, unknown biological function: 8.92
  Signal Fold Change AT5G47330 palmitoyl protein thioesterase protein: 2.34
  Signal Fold Change AT5G47450 major intrinsic protein: 2.81
  Signal Fold Change AT5G47950, unknown biological function: 4.37
  Signal Fold Change AT5G48490 lipid transfer protein: 3.78
  Signal Fold Change AT5G48900, unknown biological function: 0.58
  Signal Fold Change AT5G49900, unknown biological function: 3.82
  Signal Fold Change AT5G50720 ABA-responsive protein (HVA22e): 2.97
  Signal Fold Change AT5G52120 SKP1 interacting partner 3 protein: 11.57
  Signal Fold Change AT5G53190, unknown biological function: 7.32
  Signal Fold Change AT5G53830, unknown biological function: 0.30
  Signal Fold Change AT5G56320, cell wall organization and biogenesis, expansin (EXP14): 4.57
  Signal Fold Change AT5G58660, unknown biological function: 0.40
  Signal Fold Change AT5G59540 oxidoreductase: 0.34
  Signal Fold Change AT5G63450 cytochrome P450: 16.44
  Signal Fold Change AT5G63650 serine/threonine protein kinase: 0.59
  Signal Fold Change AT5G65970 seven transmembrane MLO protein: 2.84
  Signal Fold Change AT5G66310, microtubule-based movement, kinesin motor protein: 0.48
  Signal Fold Change AT5G66400 dehydrin (RAB18): 1.10
  Signal Fold Change AT5G66440, unknown biological function: 0.32
  Signal Fold Change AT5G66460 (1-4)-beta-mannan endohydrolase: 0.52
  Signal Fold Change AT5G66780, unknown biological function: 1.48
